The values below come from US20210395313A1, “PEPTIDE PAC1 ANTAGONISTS” (AMGEN INC., priority 2017, published 2021).

pIC50: −log10 of the molar value. Where a SMILES comes first, the peptide text is derived from it. Bridges are numbered along the chain shown (N, C = ends). Where no end group is shown, it is not given here.

This assay concerns the target T1, rat PAC1 receptor (Rattus norvegicus, UniProt P32215).
T1 construct: SHSY-5Y (human neuroblastoma cell line) and RG-2 (rat glioma cell line) cells endogenously express human and rat PAC1 receptors, respectively; endogenous in cells; host or cells: RG-2 rat glioma cells
T1 sequence (P32215 20-523): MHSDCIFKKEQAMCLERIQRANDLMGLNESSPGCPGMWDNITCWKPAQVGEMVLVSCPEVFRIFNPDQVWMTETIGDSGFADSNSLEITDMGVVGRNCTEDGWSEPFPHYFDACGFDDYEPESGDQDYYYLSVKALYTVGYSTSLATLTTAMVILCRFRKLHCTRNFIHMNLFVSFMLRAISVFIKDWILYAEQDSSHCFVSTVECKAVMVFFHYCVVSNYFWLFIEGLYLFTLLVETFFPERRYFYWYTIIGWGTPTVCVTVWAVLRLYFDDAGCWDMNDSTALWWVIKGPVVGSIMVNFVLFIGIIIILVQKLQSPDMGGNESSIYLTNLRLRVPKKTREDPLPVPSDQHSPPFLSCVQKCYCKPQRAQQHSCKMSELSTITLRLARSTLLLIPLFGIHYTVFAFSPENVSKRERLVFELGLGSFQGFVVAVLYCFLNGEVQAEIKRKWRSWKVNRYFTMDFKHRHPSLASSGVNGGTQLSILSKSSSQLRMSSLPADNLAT
Description: LANCE Ultra cAMP accumulation antagonist assay in RG-2 cells.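 Also: RG-2 rat glioma cells endogenously expressing PAC1, test peptide preincubated 30 min, then PAC1 agonist added at its EC80 for 15 min, cAMP accumulation read by LANCE Ultra.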 It counts as cell-based. (In general: Time-resolved FRET reads energy transfer from a long-lived donor to a nearby acceptor.)
Consider `CC[C@H](C)[C@H](NC(=O)[C@H](C)NC(=O)[C@H](CCCCN)NC(=O)[C@H](CCCNC(=N)N)NC(=O)[C@H](Cc1ccccc1)NC(=O)[C@H](CCC(N)=O)NC(=O)[C@@H]1CSSC[C@H](N)C(=O)N[C@@H](CC(=O)O)C(=O)N[C@@H](C)C(=O)N[C@@H]([C@@H](C)O)C(=O)N1)C(=O)N[C@@H](CC(=O)O)C(=O)N[C@@H](CC(=O)O)C(=O)N[C@H]1CSSC[C@@H](C(=O)N[C@@H](CCSC)C(=O)N[C@@H](CCCCN)C(=O)N[C@@H](CCC(N)=O)C(=O)N[C@@H](CCCCN)C(=O)N[C@@H](CCCCN)C(=O)N[C@@H](CCCCN)C(=O)N[C@@H](CCC(=O)O)C(=O)N[C@@H](Cc2c[nH]c3ccccc23)C(=O)N[C@@H](CCCCN)C(=O)N[C@@H](C)C(=O)NCC(N)=O)NC(=O)[C@H](C)NC(=O)[C@H](CCCCN)NC(=O)[C@H](Cc2ccccc2)NC(=O)[C@H](C(C)C)NC(=O)[C@H](CO)NC(=O)[C@H](C)NC(=O)[C@H](Cc2c[nH]cn2)NC(=O)[C@H](Cc2ccc(O)cc2)NC(=O)[C@H](C)NC(=O)[C@H](CCC(N)=O)NC(=O)[C@H](CCCNC(=N)N)NC(=O)[C@H](C)NC1=O` [compound 428] (H-CDATCQFRKAIDDCARQAYHASVFKACMKQKKKEWKAG-NH2; disulfide 1-5, 14-27), for which the pIC50 is more than 11.00.
The value for `CC[C@H](C)[C@H](NC(=O)[C@H](C)NC(=O)[C@H](CCCCN)NC(=O)[C@H](CCCNC(=N)N)NC(=O)[C@H](Cc1ccccc1)NC(=O)[C@H](CCC(N)=O)NC(=O)[C@@H]1CSSC[C@H](N)C(=O)N[C@@H](CC(=O)O)C(=O)N[C@@H](C)C(=O)N[C@@H]([C@@H](C)O)C(=O)N1)C(=O)N[C@@H](CC(=O)O)C(=O)N[C@@H](CC(=O)O)C(=O)N[C@H]1CSSC[C@@H](C(=O)N[C@@H](CCSC)C(=O)N[C@@H](CCCCN)C(=O)N[C@@H](CCC(N)=O)C(=O)N[C@@H](CCCCN)C(=O)N[C@@H](CCCCN)C(=O)N[C@@H](CCCCN)C(=O)N[C@@H](CCC(=O)O)C(=O)N[C@@H](Cc2c[nH]c3ccccc23)C(=O)N[C@@H](CCCCN)C(=O)N[C@@H](C)C(=O)NCC(=O)N[C@@H](Cc2c[nH]cn2)C(=O)O)NC(=O)[C@H](C)NC(=O)[C@H](CCCCN)NC(=O)[C@H](Cc2ccccc2)NC(=O)[C@H](C)NC1=O` [compound 444] (H-CDATCQFRKAIDDCAFKACMKQKKKEWKAGH-OH; disulfide 1-5, 14-19) was 7.00 to 9.00; that for `CC[C@H](C)[C@H](NC(=O)[C@H](C)NC(=O)[C@H](CCCCN)NC(=O)[C@H](CCCNC(=N)N)NC(=O)[C@H](Cc1ccccc1)NC(=O)[C@H](CCC(N)=O)NC(=O)[C@@H]1CSSC[C@H](N)C(=O)N[C@@H](CC(=O)O)C(=O)N[C@@H](C)C(=O)N[C@@H]([C@@H](C)O)C(=O)N1)C(=O)N[C@@H](CC(=O)O)C(=O)N[C@@H](CC(=O)O)C(=O)N[C@H]1CSSC[C@@H](C(=O)N[C@@H](CCSC)C(=O)N[C@@H](CCCCN)C(=O)N[C@@H](CCC(N)=O)C(=O)N[C@@H](CCCCN)C(=O)N[C@@H](CCCCN)C(=O)N[C@@H](CCCCN)C(=O)N[C@@H](CCC(=O)O)C(=O)N[C@@H](Cc2c[nH]c3ccccc23)C(=O)N[C@@H](CCCCN)C(=O)N[C@@H](Cc2c[nH]cn2)C(=O)O)NC(=O)[C@H](C)NC(=O)[C@H](CCCCN)NC(=O)[C@H](Cc2ccccc2)NC(=O)[C@H](CO)NC(=O)[C@H](Cc2c[nH]cn2)NC(=O)[C@H](Cc2ccc(O)cc2)NC(=O)[C@H](C)NC(=O)[C@H](CCC(N)=O)NC(=O)[C@H](CCCNC(=N)N)NC(=O)[C@H](C)NC1=O` [compound 450] (H-CDATCQFRKAIDDCARQAYHSFKACMKQKKKEWKH-OH; disulfide 1-5, 14-25) was 7.00 to 9.00; that for “CDATCQFRKAIDDCQKQAHHSNVPGSVFKACMKQKKKEFKAGGGGS (disulfide 1-5, 14-31) [compound 177]” was 9.00 to 11.00.
The same measure for `CC[C@H](C)[C@H](NC(=O)[C@H](C)NC(=O)[C@H](CCCCN)NC(=O)[C@H](CCCNC(=N)N)NC(=O)[C@H](Cc1ccccc1)NC(=O)[C@H](CCC(N)=O)NC(=O)[C@@H]1CSSC[C@H](N)C(=O)N[C@@H](CC(=O)O)C(=O)N[C@@H](C)C(=O)N[C@@H]([C@@H](C)O)C(=O)N1)C(=O)N[C@@H](CC(=O)O)C(=O)N[C@@H](CC(=O)O)C(=O)N[C@H]1CSSC[C@@H](C(=O)N[C@@H](CCSC)C(=O)N[C@@H](CCCCN)C(=O)N[C@@H](CCC(N)=O)C(=O)N[C@@H](CCCCN)C(=O)N[C@@H](CCCCN)C(=O)N[C@@H](CCCCN)C(=O)N[C@@H](CCC(=O)O)C(=O)N[C@@H](Cc2c[nH]c3ccccc23)C(=O)N[C@@H](CCCCN)C(=O)N[C@@H](C)C(=O)NCC(=O)N[C@@H](Cc2c[nH]cn2)C(=O)O)NC(=O)[C@H](C)NC(=O)[C@H](CCCCN)NC(=O)[C@H](Cc2ccccc2)NC(=O)[C@H](CCC(N)=O)NC(=O)[C@H](CCCNC(=N)N)NC(=O)[C@H](C)NC1=O` [compound 447] (H-CDATCQFRKAIDDCARQFKACMKQKKKEWKAGH-OH; disulfide 1-5, 14-21): 9.00 to 11.00.
The same measure for “CDATCQFRKAIDDCQKQAHHSNVPGSVFKACMKQKKKEFKAGE (disulfide 1-5, 14-31) [compound 173]”: 9.00 to 11.00; for `CC[C@H](C)[C@@H]1NC(=O)[C@@H](NC(=O)[C@H](CCCCN)NC(=O)[C@H](CCCNC(=N)N)NC(=O)[C@H](Cc2ccccc2)NC(=O)[C@H](CCC(N)=O)NC(=O)[C@H](CO)NC(=O)[C@@H](NC(=O)[C@H](C)NC(=O)[C@H](CC(=O)O)NC(=O)[C@@H](N)CO)[C@@H](C)O)CSSC[C@@H](C(=O)N[C@@H](CCCCN)C(=O)N[C@@H](CCC(N)=O)C(=O)N[C@@H](CCCCN)C(=O)N[C@@H](CCCCN)C(=O)N[C@@H](CCCCN)C(=O)N[C@@H](CCC(=O)O)C(=O)N[C@@H](Cc2c[nH]c3ccccc23)C(=O)N[C@@H](CCCCN)C(=O)N[C@@H](C)C(=O)NCC(=O)N[C@@H](Cc2c[nH]cn2)C(=O)O)NC(=O)[C@H](CO)NC(=O)[C@H](C)NC(=O)[C@H](CCCCN)NC(=O)[C@H](Cc2ccccc2)NC(=O)[C@H](C)NC(=O)CNC(=O)[C@H](CO)NC(=O)[C@H](CC(=O)O)NC(=O)[C@H](CC(=O)O)NC1=O` [compound 441] (H-SDATSQFRKCIDDSGAFKASCKQKKKEWKAGH-OH; disulfide 10-21): 7.00 to 9.00.
With `CC[C@H](C)[C@H](NC(=O)[C@H](C)NC(=O)[C@H](CCCCN)NC(=O)[C@H](CCCNC(=N)N)NC(=O)[C@H](Cc1ccccc1)NC(=O)[C@H](CCC(N)=O)NC(=O)[C@@H]1CSSC[C@H](N)C(=O)N[C@@H](CC(=O)O)C(=O)N[C@@H](C)C(=O)N[C@@H]([C@@H](C)O)C(=O)N1)C(=O)N[C@@H](CC(=O)O)C(=O)N[C@@H](CC(=O)O)C(=O)N[C@H]1CSSC[C@@H](C(=O)N[C@@H](CCSC)C(=O)N[C@@H](CCCCN)C(=O)N[C@@H](CCC(N)=O)C(=O)N[C@@H](CCCCN)C(=O)N[C@@H](CCCCN)C(=O)N[C@@H](CCCCN)C(=O)N[C@@H](CCC(=O)O)C(=O)N[C@@H](Cc2c[nH]c3ccccc23)C(=O)N[C@@H](CCCCN)C(=O)N[C@@H](C)C(=O)NCC(N)=O)NC(=O)[C@H](C)NC(=O)[C@H](CCCCN)NC(=O)[C@H](Cc2ccccc2)NC(=O)[C@H](C(C)C)NC(=O)[C@H](CO)NC(=O)[C@H](CC(N)=O)NC(=O)[C@H](CO)NC(=O)[C@H](Cc2c[nH]cn2)NC(=O)[C@H](Cc2ccc(O)cc2)NC(=O)[C@H](C)NC(=O)[C@H](CCC(N)=O)NC(=O)[C@H](CCCNC(=N)N)NC(=O)[C@H](C)NC1=O` [compound 429] (H-CDATCQFRKAIDDCARQAYHSNSVFKACMKQKKKEWKAG-NH2; disulfide 1-5, 14-28), the pIC50 is more than 11.00.
The same measure for “CDATCQFRKAIDDCQKQAHHSNVPGSVFKACMKQKKKEFKAN-NH2 (disulfide 1-5, 14-31) [compound 205]”: 9.00 to 11.00; for “CDATCQFRKAIDDCQKQAHHSNVPGSVFKACMKQKKKEFKAGY (disulfide 1-5, 14-31) [compound 164]”: 9.00 to 11.00; for `CSCC[C@H](NC(=O)[C@H](CO)NC(=O)[C@H](C)NC(=O)[C@H](CCCCN)NC(=O)[C@H](Cc1ccccc1)NC(=O)[C@@H](NC(=O)[C@H](CO)NC(=O)[C@H](C)NC(=O)[C@@H](NC(=O)[C@H](CC(C)C)NC(=O)CNC(=O)[C@H](CCCCN)NC(=O)[C@H](CCCNC(=N)N)NC(=O)[C@H](Cc1ccc(O)cc1)NC(=O)[C@H](CCC(N)=O)NC(=O)[C@@H]1CSSC[C@H](N)C(=O)N[C@@H](CC(=O)O)C(=O)N[C@@H](C)C(=O)N[C@@H]([C@@H](C)O)C(=O)N1)C(C)C)C(C)C)C(=O)N[C@@H](CCCCN)C(=O)N[C@@H](CCC(N)=O)C(=O)N[C@@H](CCCCN)C(=O)N[C@@H](CCCCN)C(=O)N[C@@H](CCCCN)C(=O)N[C@@H](CCC(=O)O)C(=O)N[C@@H](Cc1ccccc1)C(=O)N[C@@H](CCCCN)C(=O)N[C@@H](C)C(=O)NCC(=O)O` [compound 438] (H-CDATCQYRKGLVASVFKASMKQKKKEFKAG-OH; disulfide 1-5): less than 7.00.
The same measure for “CDATCQFRKAIDDCQKQAHHSNVPGSVFKACMKQKKKEFKAGA (disulfide 1-5, 14-31) [compound 175]”: 9.00 to 11.00; for “MCDATCQFRKAIDDCQKQAHHSNVPGSVFKACMKQKKKEFKAGHHHHHH (disulfide 2-6, 15-32) [compound 204]”: 9.00 to 11.00.

A word on the pIC50: it is the IC50 on a negative log10 scale, so that one unit is a factor of ten. The low end stands for a high IC50, the high end for a low IC50.
